Data on eleven molecules can be found in US20250304600A1, “PHARMACEUTICAL COMPOUNDS AND COMPOSITIONS AS c-KIT KINASE INHIBITORS” (Enanta Pharmaceuticals, Inc., priority 2023, published 2025).

Experiment [1] has as its target T1, Recombinant human c-KIT kinase (Homo sapiens, UniProt P10721).
T1 construct: purchased Promega V4498
Kind of experiment: c-KIT kinase chemiluminescence assay (ADP-Glo). The class given is biochemical. To be noted: ATP 50 μM. The procedure: The c-KIT Kinase Enzyme System (V4498) and ADP-Glo™ Kinase Assay kit (V6930) were purchased from Promega (Madison, WI). DMSO (D2650) was purchased from Sigma-Aldrich (Burlington, MA).
c-KIT Kinase Chemiluminescence Assay:
Kinase Reaction: The kinase assay was based on the recommended protocol by c-KIT Kinase Enzyme System from Promega. Recombinant human c-KIT kinase in 3 μL of assay buffer (40 mM Tris pH 7.5, 20 mM MgCl2, 0.1 mg/mL BSA and 50 μM DTT) was added to the test or high control wells and 3 μL of assay buffer was added to the low control wells. The microplate was centrifuged at 800 rotations per minute (rpm) for 60 s and incubated at room temperature (RT) for 30 min. Next, 2 μL of buffered ATP and polyEY substrate solution was added to all wells. The microplate was centrifuged at 800 rpm for 60 s and incubated at RT for 2 h.
ADP detection with ADP-Glo™ Kinase Assay: After the kinase reaction incubation, 5 μL of ADP-Glo™ reagent was added to all wells. The microplate was centrifuged at 800 rpm for 60 s and incubated at RT for 40 min. Ten microliter (10 μL) of Kinase Detection Reagent (Luciferin-Luciferase system) was then added to all wells. The microplate was centrifuged at 800 rpm for 60 s and incubated at RT for 60 min. Kinase activity was measured as an increase in luminescence at RT in an Envision plate reader equipped with 560 nm filters and operating in endpoint mode.
Data Analysis: Endpoint chemiluminescence from high and low control wells were used to calculate normalized c-KIT activity at various concentrations of test compounds. The normalized activities were fitted to inhibitor-versus-normalized response fit in GraphPad Prism 7 to determine half-maximal inhibitory concentration (IC50) and hill coefficient values (H).
Where I is the inhibitor concentration and H is the Hill coefficient.

Experiment [2] has as its system M-07e cells which endogenously express human c-KIT. Kind of experiment: M-07e cellular assay: SCF-mediated cell proliferation (CellTiter Glo). It is filed as cell-based. As to conditions: 72 h, SCF-mediated proliferation of M-07e cells. As for the experimental part:
M-07e cells (Creative Bioarray, CSC-C0249) which endogenously express human c-KIT were used to evaluate the effect of compounds on stem cell factor (SCF)-mediated cell proliferation. M-07e cells were cultured in growth media (RPMI+10% FBS+1% penicillin/streptomycin+10 ng/mL GM-CSF) at 5E5-1.5E6 cells/mL, replenishing media every 3-4 days. 1.5E4 cells were seeded per well in 384 well tissue culture treated plates in […] assay media (RPMI+10% FBS+1% penicillin/streptomycin) without growth factor stimulation and incubated at 37° C. in a CO2 humidity-controlled incubator. Twenty-four hours later, three-fold serially diluted test compounds in media containing SCF (at the previously determined EC90) were added to the plated M-07e cells and incubated for an additional 72 hours. Cell viability was determined by adding 25 μL CellTiter Glo (Promega) to the cells and the luminescence was measured using a Perkin Elmer Envision plate reader. The EC50 was determined using GraphPad Prism. Percent cell growth was determined after normalizing the curve to the mean RLU high control (no compound control wells) at 100% and the mean RLU low control (no SCF control wells) at 0%.

T1 sequence (P10721 544-976 limits assumed): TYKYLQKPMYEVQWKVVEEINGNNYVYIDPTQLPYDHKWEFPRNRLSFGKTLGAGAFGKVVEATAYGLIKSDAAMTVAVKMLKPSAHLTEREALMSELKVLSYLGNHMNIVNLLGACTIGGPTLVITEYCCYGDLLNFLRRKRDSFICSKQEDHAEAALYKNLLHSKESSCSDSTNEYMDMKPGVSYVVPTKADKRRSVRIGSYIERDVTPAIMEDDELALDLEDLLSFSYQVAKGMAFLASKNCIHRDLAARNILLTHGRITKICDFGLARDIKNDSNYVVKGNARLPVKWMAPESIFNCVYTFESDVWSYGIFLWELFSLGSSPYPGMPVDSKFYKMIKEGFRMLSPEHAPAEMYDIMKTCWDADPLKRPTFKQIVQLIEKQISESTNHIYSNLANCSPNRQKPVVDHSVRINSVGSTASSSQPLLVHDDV

For the molecule `Cc1ncc(-c2nnc(C3C[C@@H]3F)o2)cc1NC(=O)c1cnn2ccc(N3CC4(C3)CC(O)(C(F)F)C4)cc12` (stereo partly shown) [Example 404], the 50% inhibitory concentration (IC50) (in general, the concentration needed to halve the response being measured) in experiment [1] lay in the range of 100 to 1000 nM. In addition, the concentration for a half-maximal effect (EC50) (as a rule, the concentration that produces a half-maximal response) in experiment [2] fell in the range of 100 to 1000 nM.

For the molecule `Cc1ccc(-c2noc(C3C[C@@H]3F)n2)cc1NC(=O)c1cnc(-c2cnc(N3CC(O)(C(F)(F)F)C3)nc2)o1` (stereo partly shown) [Example 402], the IC50 in experiment [1] was more than 1000 nM. The EC50 in experiment [2] is 100 to 1000 nM.

In the case of `COC(=O)N1CC(c2nc(-c3cc(NC(=O)c4cnn5ccc(N6CC7(C6)CC(O)(C(F)F)C7)cc45)c(C)s3)no2)C1` [Example 388], the IC50 in experiment [1] was less than 100 nM. In experiment [2], this molecule gave an EC50 of less than 100 nM.

For `Cc1ncc(-c2noc([C@H]3C[C@@H]3C(F)F)n2)cc1NC(=O)c1cnn2ccc(-c3c(C)nc(N)nc3C)cc12` [Example 391], the IC50 in experiment [1] was more than 1000 nM. Moreover, in experiment [2], the EC50 is more than 1000 nM.

With `Cc1ncc(-c2nnn(C[C@@H](O)C(F)F)n2)cc1NC(=O)c1cnn2ccc(N3CC4(C3)CC(O)(C(F)F)C4)cc12` [Example 379], in experiment [1], the IC50 lay in the range of 100 to 1000 nM. Besides, the EC50 in experiment [2] lay within 100 to 1000 nM.

On to `Cc1ncc(-c2nc([C@H]3C[C@@H]3F)cs2)cc1NC(=O)c1cnn2ccc(N3CC4(C3)CC(O)(C(F)F)C4)cc12` [Example 405], for which the IC50 in experiment [1] was in the range of 100 to 1000 nM. Further, in experiment [2], the EC50 is less than 100 nM.

As for `Cc1ncc(-c2noc([C@H]3C[C@@H]3F)n2)cc1NC(=O)c1cnc(-c2ccc3c(c2)c(C)nn3CC(C)(C)O)o1` [Example 22a], the IC50 in experiment [1] lay within 100 to 1000 nM. Further, in experiment [2], the EC50 is less than 100 nM.

Take `Cc1ccc(-c2noc(C3C[C@@H]3F)n2)cc1NC(=O)c1ccc(NC(=O)OC(C)(C)C)nc1` (stereo partly shown) [Example 396]: in experiment [1], the IC50 is more than 1000 nM. Besides, in experiment [2], the EC50 was more than 1000 nM.

Regarding `Cc1ccc(-c2noc([C@H]3C[C@@H]3F)n2)cc1NC(=O)c1ccc(N)nc1` [Example 397], the IC50 in experiment [1] is more than 1000 nM. The molecule also gave an EC50 in experiment [2] of more than 1000 nM.

Turning to `Cc1ncc(-c2noc([C@H]3C[C@@H]3C(F)F)n2)cc1NC(=O)c1ccc(N)nc1` [Example 401], the IC50 in experiment [1] was more than 1000 nM. The molecule further came in with an EC50 in experiment [2] of 100 to 1000 nM.

For `Cc1ccc(-c2noc(C3C[C@@H]3C(F)F)n2)cc1NC(=O)c1ccc(N)nc1` (stereo partly shown) [Example 400], in experiment [1], the IC50 was more than 1000 nM. For the same molecule, the EC50 in experiment [2] is more than 1000 nM.
